Measured values from ChEMBL document CHEMBL5338809, “Fragment-Based Discovery of Azocyclic Alkyl Naphthalenesulfonamides as Keap1-Nrf2 Inhibitors for Acute Lung Injury Treatment” (J Med Chem, 2023).
Activity calls are given as the source filed them. The calls are words filed in the database; no cut-off is given here.

Legend:
[1] = molecular target: Keap1/Nrf2 (Homo sapiens) (UniProt Q16236+Q14145); assay: Binding affinity to human Keap1-Nrf2 protein-protein interaction assessed as dissociation constant (Kd2) incubated for 60 mins by fluorescent polarization assay
Sequence of Keap1/Nrf2 (Homo sapiens) (Q14145 whole entry, looked up): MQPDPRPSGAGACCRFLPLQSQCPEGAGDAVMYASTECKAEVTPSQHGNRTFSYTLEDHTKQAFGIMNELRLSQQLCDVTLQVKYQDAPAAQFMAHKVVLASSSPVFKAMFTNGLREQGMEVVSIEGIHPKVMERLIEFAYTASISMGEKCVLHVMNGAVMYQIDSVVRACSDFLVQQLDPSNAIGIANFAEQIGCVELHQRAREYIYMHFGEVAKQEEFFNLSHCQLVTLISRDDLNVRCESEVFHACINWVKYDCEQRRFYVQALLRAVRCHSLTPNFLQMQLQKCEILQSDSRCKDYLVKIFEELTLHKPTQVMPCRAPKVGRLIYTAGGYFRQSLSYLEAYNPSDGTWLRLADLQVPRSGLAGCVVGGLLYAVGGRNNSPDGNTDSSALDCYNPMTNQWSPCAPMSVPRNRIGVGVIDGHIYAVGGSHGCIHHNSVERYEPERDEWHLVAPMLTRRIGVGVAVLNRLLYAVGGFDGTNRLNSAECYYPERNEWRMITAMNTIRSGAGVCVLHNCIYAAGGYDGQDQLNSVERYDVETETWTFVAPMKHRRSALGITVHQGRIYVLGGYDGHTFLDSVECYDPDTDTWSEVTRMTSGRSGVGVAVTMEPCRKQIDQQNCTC
Sequence of Keap1/Nrf2 (Homo sapiens) (Q16236 whole entry, looked up): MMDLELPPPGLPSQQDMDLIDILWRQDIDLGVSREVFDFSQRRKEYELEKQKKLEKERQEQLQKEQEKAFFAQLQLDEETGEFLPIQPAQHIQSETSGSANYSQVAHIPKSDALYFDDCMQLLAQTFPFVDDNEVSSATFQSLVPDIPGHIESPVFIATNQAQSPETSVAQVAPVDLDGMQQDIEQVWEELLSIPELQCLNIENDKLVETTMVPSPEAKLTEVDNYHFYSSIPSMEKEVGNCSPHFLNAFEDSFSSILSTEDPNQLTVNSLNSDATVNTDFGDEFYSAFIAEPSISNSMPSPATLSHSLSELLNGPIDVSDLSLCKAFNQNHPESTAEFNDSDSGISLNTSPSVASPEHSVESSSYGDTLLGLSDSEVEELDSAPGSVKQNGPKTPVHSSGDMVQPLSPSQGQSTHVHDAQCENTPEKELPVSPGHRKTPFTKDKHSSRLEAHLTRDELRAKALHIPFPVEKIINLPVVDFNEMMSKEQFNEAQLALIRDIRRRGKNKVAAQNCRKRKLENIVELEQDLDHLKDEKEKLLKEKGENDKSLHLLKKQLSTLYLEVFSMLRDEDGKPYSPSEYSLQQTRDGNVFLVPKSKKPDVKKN

[2] = Cytotoxicity against mouse peritoneal macrophages assessed as reduction in cell viability incubated for 24 hrs by Cell titer-blue assay; format: toxicity, cell-based, Peritoneal macrophage
Peritoneal macrophage [3] = assay: Antiinflammatory activity in mouse peritoneal macrophages assessed as fold reduction in LPS-induced TNFalpha level at 10 uM incubated for 4 hrs by ELISA method; format: functional
Peritoneal macrophage [4] = assay: Antiinflammatory activity in mouse peritoneal macrophages assessed as reduction in LPS-induced IL6 level at 10 uM incubated for 4 hrs by ELISA method; format: functional, cell-based
[5] = Aqueous solubility of the compound in PBS at pH 2 at 2 mg incubated for 24 hrs by HPLC-UV analysis; format: physicochemical
[6] = Aqueous solubility of the compound in PBS at pH 7 at 2 mg incubated for 24 hrs by HPLC-UV analysis; format: physicochemical
[7] = Aqueous solubility of the compound in PBS at pH 7.4 at 2 mg incubated for 24 hrs by HPLC-UV analysis; format: physicochemical

| Compound | K [1] [nM] | CC50 at 24 h [2] [µM] | fold change (FC) (Peritoneal macrophage [3]) | Activity (Peritoneal macrophage [4]) | solubility at 24 h [5] [µg/mL] | solubility at 24 h [6] [µg/mL] | solubility at 24 h [7] [µg/mL] |
| --- | --- | --- | --- | --- | --- | --- | --- |
| COc1ccc(S(=O)(=O)N(CC(N)=O)c2ccc(N(CC(N)=O)S(=O)(=O)c3ccc(NC(=O)[C@@H]4CCCNC4)cc3)c3ccccc23)cc1 | 270 | > 100 | <=0.5 | Active |  |  |  |
| COC[C@@H](N)C(=O)Nc1ccc(S(=O)(=O)N(CC(N)=O)c2ccc(N(CC(N)=O)S(=O)(=O)c3ccc(OC)cc3)c3ccccc23)cc1 | 280 | > 100 | <=0.5 |  |  |  |  |
| COC[C@H](N)C(=O)Nc1ccc(S(=O)(=O)N(CC(N)=O)c2ccc(N(CC(N)=O)S(=O)(=O)c3ccc(OC)cc3)c3ccccc23)cc1 | 330 | > 100 | <=0.5 | Active |  |  |  |
| COc1ccc(S(=O)(=O)N(CC(N)=O)c2ccc(N(CC(N)=O)S(=O)(=O)c3ccc(NC(=O)[C@H]4CCN4)cc3)c3ccccc23)cc1.O=C(O)C(F)(F)F |  |  |  |  | 423 | 292 | 275 |
| CC(=O)O.COc1ccc(S(=O)(=O)N(CC(N)=O)c2ccc(N(CC(N)=O)S(=O)(=O)c3ccc(NC(=O)[C@H]4CCN4)cc3)c3ccccc23)cc1 |  |  |  |  | 311 | 162 | 160 |
| COc1ccc(S(=O)(=O)N(CC(N)=O)c2ccc(N(CC(N)=O)S(=O)(=O)c3ccc(NC(=O)[C@@H](N)Cc4ccccc4)cc3)c3ccccc23)cc1 | 820 | > 100 | <=0.5 |  |  |  |  |
| COc1ccc(S(=O)(=O)N(CC(N)=O)c2ccc(N(CC(N)=O)S(=O)(=O)c3ccc(NC(=O)[C@@H](C)N)cc3)c3ccccc23)cc1 | 230 | > 100 | <=0.5 | Active |  |  |  |
| COc1ccc(S(=O)(=O)N(CC(N)=O)c2ccc(N(CC(N)=O)S(=O)(=O)c3ccc(NC(=O)[C@H]4CCCN4)cc3)c3ccccc23)cc1 | 300 | > 100 | <=0.5 | Active |  |  |  |
| COc1ccc(S(=O)(=O)N(CC(N)=O)c2ccc(N(CC(N)=O)S(=O)(=O)c3ccc(NC(=O)C4CCNC4)cc3)c3ccccc23)cc1 (centres undefined) | 280 | > 100 | <=0.5 | Active |  |  |  |
| COc1ccc(S(=O)(=O)N(CC(N)=O)c2ccc(N(CC(N)=O)S(=O)(=O)c3ccc(NC(=O)CCCN)cc3)c3ccccc23)cc1 | 630 | > 100 | <=0.5 |  |  |  |  |
| COc1ccc(S(=O)(=O)N(CC(N)=O)c2ccc(N(CC(N)=O)S(=O)(=O)c3ccc(NC(=O)[C@H]4CCCNC4)cc3)c3ccccc23)cc1 | 400 | > 100 | <=0.5 |  |  |  |  |
| COc1ccc(S(=O)(=O)N(CC(N)=O)c2ccc(N(CC(N)=O)S(=O)(=O)c3ccc(NC(=O)[C@H](N)C(C)C)cc3)c3ccccc23)cc1 | 810 | > 100 | <=0.5 |  |  |  |  |
| COc1ccc(S(=O)(=O)N(CC(N)=O)c2ccc(N(CC(N)=O)S(=O)(=O)c3ccc(NC(=O)[C@@H]4CCCN4)cc3)c3ccccc23)cc1 | 270 | > 100 | <=0.5 | Active |  |  |  |
| COc1ccc(S(=O)(=O)N(CC(N)=O)c2ccc(N(CC(N)=O)S(=O)(=O)c3ccc(NC(=O)CN)cc3)c3ccccc23)cc1 | 250 | > 100 | <=0.5 |  |  |  |  |
| COc1ccc(S(=O)(=O)N(CC(N)=O)c2ccc(N(CC(N)=O)S(=O)(=O)c3ccc(NC(=O)CCN)cc3)c3ccccc23)cc1 | 440 | > 100 | <=0.5 |  |  |  |  |
| COc1ccc(S(=O)(=O)N(CC(N)=O)c2ccc(N(CC(N)=O)S(=O)(=O)c3ccc(NC(=O)[C@H](C)N)cc3)c3ccccc23)cc1 | 240 | > 100 | <=0.5 | Active |  |  |  |
| COc1ccc(S(=O)(=O)N(CC(N)=O)c2ccc(N(CC(N)=O)S(=O)(=O)c3ccc(NC(=O)C4CCN4)cc3)c3ccccc23)cc1 (centres undefined) | 260 | > 100 | <=0.5 | Active |  |  |  |

| Compound | K [1] [nM] | CC50 at 24 h [2] [µM] | fold change (FC) (Peritoneal macrophage [3]) | Activity (Peritoneal macrophage [4]) | solubility at 24 h [5] [µg/mL] | solubility at 24 h [6] [µg/mL] | solubility at 24 h [7] [µg/mL] |
| --- | --- | --- | --- | --- | --- | --- | --- |
| COc1ccc(S(=O)(=O)N(CC(N)=O)c2ccc(N(CC(N)=O)S(=O)(=O)c3ccc(NC(=O)[C@H]4CCNC4)cc3)c3ccccc23)cc1 | 250 | > 100 | <=0.5 | Active |  |  |  |
| CNCC(=O)Nc1ccc(S(=O)(=O)N(CC(N)=O)c2ccc(N(CC(N)=O)S(=O)(=O)c3ccc(OC)cc3)c3ccccc23)cc1 | 250 | > 100 | <=0.5 | Active |  |  |  |
| COc1ccc(S(=O)(=O)N(CC(N)=O)c2ccc(N(CC(N)=O)S(=O)(=O)c3ccc(NC(=O)[C@H](N)Cc4ccccc4)cc3)c3ccccc23)cc1 | 1170 | > 100 | <=0.5 |  |  |  |  |
| COc1ccc(S(=O)(=O)N(CC(N)=O)c2ccc(N(CC(N)=O)S(=O)(=O)c3ccc(NC(=O)[C@@H](N)CSC)cc3)c3ccccc23)cc1 | 440 | > 100 | <=0.5 |  |  |  |  |
| CCC[C@@H](N)C(=O)Nc1ccc(S(=O)(=O)N(CC(N)=O)c2ccc(N(CC(N)=O)S(=O)(=O)c3ccc(OC)cc3)c3ccccc23)cc1 | 590 | > 100 | <=0.5 |  |  |  |  |
| COc1ccc(S(=O)(=O)N(CC(N)=O)c2ccc(N(CC(N)=O)S(=O)(=O)c3ccc(NC(=O)CCCCN)cc3)c3ccccc23)cc1 | 270 | > 100 | <=0.5 |  |  |  |  |
| COc1ccc(S(=O)(=O)N(CC(N)=O)c2ccc(N(CC(N)=O)S(=O)(=O)c3ccc(NC(=O)[C@H]4CCN4)cc3)c3ccccc23)cc1.O=C(O)/C=C\C(=O)O |  |  |  |  | 46.3 | 32.3 | 34.7 |
| CC[C@@H](N)C(=O)Nc1ccc(S(=O)(=O)N(CC(N)=O)c2ccc(N(CC(N)=O)S(=O)(=O)c3ccc(OC)cc3)c3ccccc23)cc1 | 320 | > 100 | <=0.5 | Active |  |  |  |
| COc1ccc(S(=O)(=O)N(CC(N)=O)c2ccc(N(CC(N)=O)S(=O)(=O)c3ccc(NC(=O)[C@@H]4CCN4)cc3)c3ccccc23)cc1 | 650 | > 100 | <=0.5 |  |  |  |  |
| COc1ccc(S(=O)(=O)N(CC(N)=O)c2ccc(N(CC(N)=O)S(=O)(=O)c3ccc(NC(=O)[C@H]4CCN4)cc3)c3ccccc23)cc1.Cl |  |  |  |  | 1170 | 484 | 283 |
| Br.COc1ccc(S(=O)(=O)N(CC(N)=O)c2ccc(N(CC(N)=O)S(=O)(=O)c3ccc(NC(=O)[C@H]4CCN4)cc3)c3ccccc23)cc1 |  |  |  |  | 672 | 256 | 137 |
| COc1ccc(S(=O)(=O)N(CC(N)=O)c2ccc(N(CC(N)=O)S(=O)(=O)c3ccc(NC(=O)C4CCCNC4)cc3)c3ccccc23)cc1 (centres undefined) | 430 | > 100 | <=0.5 |  |  |  |  |
| CC[C@H](N)C(=O)Nc1ccc(S(=O)(=O)N(CC(N)=O)c2ccc(N(CC(N)=O)S(=O)(=O)c3ccc(OC)cc3)c3ccccc23)cc1 | 530 | > 100 | <=0.5 |  |  |  |  |
| COCC(=O)Nc1ccc(S(=O)(=O)N(CC(N)=O)c2ccc(N(CC(N)=O)S(=O)(=O)c3ccc(OC)cc3)c3ccccc23)cc1 | 550 | > 100 | <=0.5 |  |  |  |  |
| COc1ccc(S(=O)(=O)N(CC(N)=O)c2ccc(N(CC(N)=O)S(=O)(=O)c3ccc(NC(=O)[C@@H](N)C(C)C)cc3)c3ccccc23)cc1 | 400 | > 100 | <=0.5 |  |  |  |  |
| COc1ccc(S(=O)(=O)N(CC(N)=O)c2ccc(N(CC(N)=O)S(=O)(=O)c3ccc(NC(=O)[C@@H]4CCNC4)cc3)c3ccccc23)cc1 | 240 | > 100 | <=0.5 | Active |  |  |  |
| COc1ccc(S(=O)(=O)N(CC(N)=O)c2ccc(N(CC(N)=O)S(=O)(=O)c3ccc(NC(=O)[C@H]4CCN4)cc3)c3ccccc23)cc1.O=C(O)CCC(=O)O |  |  |  |  | 145 | 60.6 | 65.6 |
